Target: 17β-HSD1 (Homo sapiens (Human), UniProt P14061)
Experiment: 17β-HSD1 test assay (recombinant protein from Sf9 insect cells, 3H-estrone/NADPH)
Type: biochemical
Details: for inhibition at 1 µM: read-out: HSD 1 μM (% inhibition of HSD1), inhibitor 1 μM; for inhibition at 0.1 µM: read-out: HSD1 100 nM (% inhibition), inhibitor 100 nM
Procedure: Recombinant protein obtained from Sf9 insect cells (0.1 μg/ml) is incubated with 20 mM KH2PO4, pH 7.4, 30 nM ^3H-estrone and 1 mM NADPH for 30 min at RT in the presence of the potential inhibitor in a concentration of 1 μM or 100 nM. The stock solutions of the compounds are prepared in DMSO (dimethylsulfoxide) so that the final concentration of DMSO in the sample is 1%. After the prescribed incubation time, the reaction is quenched by adding trichloroacetic acid (10% final concentration). The samples are centrifuged in microtitration plates at 400 rpm for 10 min, and the supernatants are charged on a reversed-phase HPLC equipped with a Waters Symmetrie C18 column and Waters Sentry Guard column. The isocratic HPLC run is performed at RT with a flow rate of 1 ml/min and acetonitrile/water 48:52 as the eluent. The radioactivity was measured by means of a Packard Flow Scintillation Analyzer. […]

Chain of 17β-HSD1 (P14061 whole entry): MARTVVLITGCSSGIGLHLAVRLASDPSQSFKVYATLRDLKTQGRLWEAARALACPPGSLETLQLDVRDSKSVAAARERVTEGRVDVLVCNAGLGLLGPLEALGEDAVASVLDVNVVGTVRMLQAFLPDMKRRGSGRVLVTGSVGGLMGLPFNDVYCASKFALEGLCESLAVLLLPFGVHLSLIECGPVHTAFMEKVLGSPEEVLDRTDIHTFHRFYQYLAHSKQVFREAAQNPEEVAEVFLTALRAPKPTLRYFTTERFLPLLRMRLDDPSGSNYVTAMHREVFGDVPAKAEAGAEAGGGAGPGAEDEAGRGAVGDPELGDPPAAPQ

Compound	inhibition at 1 µM	inhibition at 0.1 µM
Oc1cccc(-c2ccc3ccccc3c2)c1 [Compound 3, 3-Naphthalene-2-ylphenol]	61%	26%
CC(=O)Nc1cccc(-c2ccc3cc(O)ccc3c2)c1 [Compound 9, N-[3-(6-hydroxy-2-naphthyl)phenyl]acetamide]	18.5%	< 10%
Oc1ccc2cc(-c3ccsc3)ccc2c1 [Compound 5]	< 10%	< 10%
Oc1ccc2cc(-c3ccccc3O)ccc2c1 [Compound 18, 6-(2-Hydroxyphenyl)-2-naphthol]	< 10%	< 10%
O=S(=O)(Nc1cccc(-c2c(O)ccc3cc(-c4cccc(O)c4)ccc23)c1)c1cccc2cccnc12 [Compound 73, N-{3-[2-hydroxy-6-(3-hydroxyphenyl)-1-naphthyl]phenyl}quinoline-8-sulfonamide]	80.5%	71.2%
O=C(Nc1nccs1)c1c(O)ccc2cc(-c3cccc(O)c3)ccc12 [Compound 46, 2-Hydroxy-6-(3-hydroxyphenyl)-N-(thiazol-2-yl)-1-naphthamide]	53%	< 10%
O=S(=O)(Nc1cccc(-c2c(O)ccc3cc(-c4cccc(O)c4)ccc23)c1)c1cc(Br)c(Br)s1 [Compound 85, 4,5-dibromo-N-{3-[2-hydroxy-6-(3-hydroxyphenyl)-1-naphthyl]phenyl}thiophene-2-sulfonamide]	77.7%	54.5%
O=S(=O)(Nc1cccc(-c2c(O)ccc3cc(-c4cccc(O)c4)ccc23)c1)c1ccc(Br)cc1OC(F)(F)F [Compound 82, 4-bromo-N-{3-[2-hydroxy-6-(3-hydroxyphenyl)-1-naphthyl]phenyl}-2-(trifluoromethoxy)benzenesulfonamide]	78.4%	40.5%
CC(=O)Nc1ccc(S(=O)(=O)Nc2cccc(-c3c(O)ccc4cc(-c5cccc(O)c5)ccc34)c2)cc1 [Compound 79, N-(4-{3-[2-hydroxy-6-(3-hydroxyphenyl)-1-naphthyl]phenylsulfamoyl}phenyl)acetamide]	80.2%	73.8%
Oc1cncc(-c2ccc3cc(O)ccc3c2)c1 [Compound 17, 5-(6-Hydroxynaphthalene-2-yl)pyridin-3-ol]	57.7%	30.3%
CNC(=O)c1cc2cc(-c3cccc(O)c3)ccc2cc1O [Compound 37, 3-Hydroxy-7-(3-hydroxyphenyl)-N-methyl-2-naphthamide]	18%	< 10%
Oc1ccc(-c2cnc3ccccc3c2)cc1 [Compound 14, 4-(Quinolin-3-yl)phenol]	< 10%	< 10%
Oc1ccc(-c2cc(O)cc(-c3ccc4cc(O)ccc4c3)c2)cc1 [Compound 27, 5-(6-Hydroxy-2-naphthyl)-1,1′-biphenyl-3,4′-diol]	< 10%	< 10%
O=C(Nc1ccc(-c2ccc3cc(O)ccc3c2)cc1O)c1ccccc1 [Compound 36, N-[2-Hydroxy-4-(6-hydroxy-2-naphthyl)phenyl]benzamide]	< 10%	< 10%
CS(=O)(=O)NC(=O)c1cccc(-c2c(O)ccc3cc(-c4cccc(O)c4)ccc23)c1 [Compound 90, 3-(2-Hydroxy-6-(3-hydroxyphenyl)naphthalene-1-yl)-N-(methylsulfonyl)-benzamide]	77.3%	16.5%
Oc1ccc2cc(-c3cccs3)ccc2c1 [Compound 6]	< 10%	< 10%

Compound	inhibition at 1 µM	inhibition at 0.1 µM
Nc1cccc(-c2ccc3cc(O)ccc3c2)c1 [Compound 23, 6-(3-Aminophenyl)-naphthalen-2-ol]	< 10%	< 10%
CNC(=O)CCc1cc(O)cc(-c2ccc3cc(O)ccc3c2)c1 [Compound 33, 3-[3-Hydroxy-5-(6-hydroxynaphthalene-2-yl)phenyl]-N-methylpropionamide]	< 10%	< 10%
OCc1cccc(-c2ccc3cc(O)ccc3c2)c1 [Compound 10, 6-[3-(hydroxymethyl)-phenyl]-2-naphthol]	< 10%	< 10%
COc1ccc(-c2ccc3c(O)cccc3c2)cc1 [Compound 25, 6-(4-Methoxyphenyl)-1-naphthol]	< 10%	< 10%
O=C(Nc1ccccc1)c1cc2cc(-c3cccc(O)c3)ccc2cc1O [Compound 38, 3-Hydroxy-7-(3-hydroxyphenyl)-N-phenyl-2-naphthamide]	62%	17%
Cc1cc(O)cc(-c2ccc3cc(O)ccc3c2)c1 [Compound 26, 6-(3-Hydroxy-5-methylphenyl)-2-naphthol]	41.7%	14.3%
O=C(Nc1ccccn1)c1c(O)ccc2cc(-c3cccc(O)c3)ccc12 [Compound 49, 2-Hydroxy-6-(3-hydroxyphenyl)-N-(pyridin-2-yl)-1-naphthamide]	84%	37%
O=S(=O)(c1ccccc1)c1c(O)ccc2cc(-c3cccc(O)c3)ccc12 [Compound 91, 6-(3-Hydroxyphenyl)-1-(phenylsulfonyl)-2-naphthol]	33%	
O=S(=O)(Nc1cccc(-c2c(O)ccc3cc(-c4cccc(O)c4)ccc23)c1)c1ccc2ncsc2c1 [Compound 86, N-{3-[2-hydroxy-6-(3-hydroxyphenyl)-1-naphthyl]-phenyl}-1,3-benzothiazole-6-sulfonamide]	80.9%	71.6%
O=[N+]([O-])c1cccc(-c2ccc3cc(O)ccc3c2)c1 [Compound 22, 6-(3-Nitrophenyl)-naphthalene-2-ol]	< 10%	< 10%
Oc1cccc(-c2ccc3cc(O)ccc3n2)c1 [Compound 12, 2-(3-Hydroxyphenyl)quinolin-6-ol]	56.9%	24%
Oc1cccc(-c2cc3cc(O)ccc3[nH]2)c1 [Compound 1, 2-(3-Hydroxyphenyl)-1H-indol-5-ol]	< 10%	< 10%
O=C(c1c(O)ccc2cc(-c3cccc(O)c3)ccc12)N1CCNCC1 [Compound 45, (2-Hydroxy-6-(3-hydroxyphenyl)naphthalene-1-yl)(piperazin-1-yl)methanone]	44.5%	< 10%
O=C(c1c(O)ccc2cc(-c3cccc(O)c3)ccc12)N1CCOCC1 [Compound 44, (2-Hydroxy-6-(3-hydroxyphenyl)naphthalene-1-yl)(morpholino)methanone]	62.4%	27.8%
CNC(=O)/C=C/c1cc(O)cc(-c2ccc3cc(O)ccc3c2)c1 [Compound 31, (E)-3-[3-Hydroxy-5-(6-hydroxynaphthalene-2-yl)phenyl]-N-methylacrylamide]	< 10%	< 10%
Oc1ccc2cc(-c3cccnc3)ccc2c1 [Compound 4, 3-(6-hydroxy-2-naphthyl)pyridine]	31.6%	< 10%

Source: patent US8546392B2, “17Beta-hydroxysteroid dehydrogenase type 1 inhibitors for the treatment of hormone-related diseases” (Universitaet des Saarlandes, priority 2008, dated 2013)
